{
  "source": "patent US12673044B2",
  "about": "“Methods of treating borderline personality disorder” (ORYZON GENOMICS, S.A., priority 2019, dated 2026)",
  "key": {"BPD patients [1]": {"tested_on": "BPD patients", "experiment": "Phase IIa REIMAGINE trial, BPD cohort: efficacy by Borderline Personality Disorder Checklist (BPDCL)", "assay_type": "in vivo, human", "conditions": "5 BPD patients, 1.2 mg/day oral free base, 5 days on/2 days off, 8 weeks, paired one-tail t-test", "source_text": "(§1) As part of a Phase IIa clinical trial (REIMAGINE trial, EudraCT number 2018-002140-88) to evaluate the safety, tolerability and efficacy of the KDM1A inhibitor vafidemstat to treat aggression in adult population in patients with different CNS disorders, a cohort of BPD patients was recruited and treated with vafidemstat for 8 weeks. A summary of the protocol of this clinical trial and results obtained in the BPD cohort are provided below.\n(§2) Reimagine is a unicenter, open-label, 1-arm, 8-week clinical study to evaluate the efficacy, safety and tolerability of vafidemstat in aggression in adult population with Alzheimer's Disease (AD), Lewy Body Dementia (LBD), Adult attention Deficit Hyperactivity Disorder (ADHD), Borderline Personality Disorder (BPD) and Autism Spectrum Disorder (ASD). Six patients to be recruited per disorder.\nTreatment: All patients received vafidemstat (as free base) at a dose of 1.2 mg/day, administered orally as a single capsule, in a 5 days on/2 days off schedule, during 8 weeks.\nSix BPD patients were recruited, but there was one drop-out, and therefore the results as described herein correspond to the 5 BPD subjects eligible for analysis. A summary of the patients recruited in this BPD cohort (demographic data at baseline) can be found in Table 1.\nAssessment of efficacy of treatment in BPD patients was performed using a validated scale specific for BPD, the Borderline Personality Disorder Checklist (BPDCL). The BPDCL is an instrument specifically designed to evaluate the subjective burden of BPD in the last month and also to rate BPD changes after therapeutic intervention. Originally developed in Dutch, the BPDCL has been subsequently translated into English, Spanish and other languages, and has been applied to clinical and non-clinical samples. […]\nOne can use the total sum score on the BPDCL (BPDCL Total Score) as an overall index of the subjective burden caused by BPD symptoms, or one can use sum scores for one or more of the separate BPD domains. […] Efficacy assessments were always measured prior to treatment administration on the corresponding visit day. […]"}, "BPD patients [2]": {"tested_on": "BPD patients", "experiment": "Phase IIa REIMAGINE trial, BPD cohort: safety and tolerability", "assay_type": "in vivo, human", "conditions": "1.2 mg/day oral free base, 5 days on/2 days off, 8 weeks; without significant adverse events", "source_text": "as §1, §2\nMain objective of the trial: To evaluate the safety and tolerability of vafidemstat in adult population with Alzheimer's Disease (AD), Lewy Body Dementia (LBD), Adult attention deficit hyperactivity disorder (ADHD), Borderline Personality Disorder (BPD), Autism Spectrum Disorder (ASD)\nTreatment: All patients received vafidemstat (as free base) at a dose of 1.2 mg/day, administered orally as a single capsule, in a 5 days on/2 days off schedule, during 8 weeks. […]"}},
  "data": [
    {"molecule": "Nc1nnc(CN[C@@H]2C[C@H]2c2ccc(OCc3ccccc3)cc2)o1", "note": "[vafidemstat, 5-((((1R,2S)-2-(4-(benzyloxy)phenyl)cyclopropyl)amino)methyl)-1,3,4-oxadiazol-2-amine]", "values": [
      {"measurement": "Aggression-related BPDCL domains combined score (anger control, impulsivity, (para)suicide), change from visit 1 (baseline) to visit 7", "setting": "BPD patients [1]; p=0.0029, FIG. 1", "value": "statistically significant reduction"},
      {"measurement": "BPDCL Total score, change from visit 1 (baseline) to visit 7", "setting": "BPD patients [1]; p=0.0048, FIG. 2", "value": "statistically significant reduction"},
      {"measurement": "Non-aggression-related BPDCL domains combined score (abandonment, relationships, identity disturbance, affective instability, emptiness, dissociation), change from visit 1 (baseline) to visit 7", "setting": "BPD patients [1]; p=0.0234, FIG. 3", "value": "statistically significant reduction"},
      {"measurement": "Safety and tolerability of treatment in BPD patients", "setting": "BPD patients [2]", "value": "safe and well tolerated"}
    ]}
  ]
}
